EC50 and IC50 data for ten compounds are collected here from patent US11440923B2, “Substituted macrocyclic indole derivatives” (Bayer Aktiengesellschaft, priority 2017, dated 2022).

Counter-ions that a name gives are not always drawn. Like-named read-outs stand apart in the source and are kept apart here.

Broadly, the EC50 is the concentration needed to bring the measured effect to its halfway point. Broadly, the IC50 is the midpoint of a concentration-inhibition curve.

Series [1] relates to SUDHL5 cells. Put plainly: Induction of caspase-3/7 activity in SUDHL5 cells (Assay 4). The class given is cell-based. The conditions noted are these: Homo sapiens, SU-DHL-5, 3 h, caspase-3/7 induction, 3 h; read-out: Caspase SUDHL5 EC50 (median). The method in brief:
(§1)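 Caspase-3/7 activity measured in DLBCL lines after 3 h compound exposure at 37 °C, following overnight plating; Caspase-Glo 3/7 luminescence read after 1 h at 37 °C. Medium-only background subtracted, values normalized to mean of DMSO-treated cells.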

Series [2] relates to SUDHL10 cells. Nature of the series: Induction of caspase-3/7 activity in SUDHL10 cells (Assay 4). The class given is cell-based. Conditions: caspase-3/7 induction, 3 h, read-out: Caspase SUDHL10 EC50 (median). The method in brief: as §1
A further series has as its target BCL-2 (Homo sapiens (Human), UniProt P10415). Nature of the series: Protein-protein interaction assay BCL-2/Bad BH3 peptide (BCL-2 assay, TR-FRET). The conditions noted are these: read-out: BCL-2 Assay IC50 (median). The class given is binding. The procedure: Assay 3 Protein-Protein Interaction Assay: BCL-2/Bad BH3 Peptide (BCL-2 Assay)
The dose-dependent inhibition by the compounds described in this invention of the interaction between BCL-2 and the BH3 domain of Bad (both human) was determined using a steady state binding competition assay with time-resolved fluorescence energy transfer (TR-FRET) readout. For that purpose BCL-2 (amino acids 1-211, C-terminal fused to a hexahistidine (6×His) tag (SEQ ID 5) and a synthetic Bad BH3-derived peptide of sequence Biotin-PEG2-PEG2-[…]-Nle-[…]-amide (SEQ ID 4) served as protein receptor and tracer ligand respectively. The recombinant BCL-2 protein (expressed in E. coli) was purchased from BPS Bioscience (San Diego, Calif., USA). The Bad BH3-derived peptide can be obtained from e.g. Biosyntan (Berlin, Germany).
In the assay 11 different concentrations of each compound (0.1 nM, 0.33 nM, 1.1 nM, 3.8 nM, 13 nM, 44 nM, 0.15 μM, 0.51 μM, 1.7 μM, 5.9 μM and 20 μM) were typically measured as duplicates in the same microtiter plate. For that, 100-fold concentrated DMSO solutions were prepared by serial dilutions (1:3.4) of a 2 mM stock solution in a clear, 384-well microtiter plate (Greiner Bio-One, Frickenhausen, Germany). From there, 50 nl were transferred in a dark test plate (Greiner Bio-One, Frickenhausen, Germany). The assay was initiated by addition of 2 μL of a 2,5-fold concentrated His-BCL-2 solution (usually for a 1 nM end concentration in 5 μL reaction volume) in aqueous assay buffer [50 mM Tris/HCl pH 7, 100 mM sodium chloride (NaCl), 50 mM potassium fluoride (KF), 0.005% Tween-20, 2 mM DTT, 0.1% bovine gamma globulin (BGG)] to the compounds in the assay plate. This was followed by a 10-minute incubation step at 22° C. for pre-equilibration of the putative complex between His-BCL-2 and the compounds. After that, 3 μL of a 1.67-fold concentrated solution (in assay buffer) consisting of Bad BH3-derived peptide (1 nM end concentration) and TR-FRET detection reagents [1.67 nM anti-His-Eu cryptate and 1.67 nM streptavidin-XL665 (both from Cisbio Bioassays, Codolet, France)], were added.
The mixture was incubated in the dark for one hour at 22° C. and then overnight at 4° C. The formation of BCL-2/Bad complexes was determined by measuring the resonance energy transfer of the anti-His-Eu-cryptate antibody to the streptavidin-XL665 present in the reaction. For that purpose, the fluorescence emission at 620 nm and 665 nm after excitation at 330-350 nm was measured in a TR-FRET measuring instrument, for instance a Rubystar or a Pherastar (both from BMG Lab Technologies, Offenburg, Germany) or a Viewlux (Perkin-Elmer). The ratio of the emission at 665 nm and at 622 nm was used as indicator of the amount of BCL-2/Bad complexes present.
The resulting data (ratio) were normalized, taking 0% inhibition as the mean value of control measurements (usually 32 data points) where all reagents were included. In this case 50 nl DMSO were used instead of compounds. […] IC50 values were determined by regression analysis based on a 4 parameter equation (minimum, maximum, IC50, Hill; Y=Max+(Min−Max)/(1+(X/IC50)^Hill) using the Screener Software (Genedata).

The subject of series [3] is SUDHL5 cells. Nature of the series: Induction of cytotoxicity in SUDHL5 cells (Assay 6). The class given is cell-based. Conditions: Homo sapiens, SU-DHL-5, 5 h, 5 h, CellTiter-Glo; read-out: Cytotox SUDHL5 IC50 (median). The method in brief: (§2)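 Overnight seeding, 37 °C; 5 h compound exposure; CellTiter-Glo, 15 min RT shake; luminescence read. No-cell medium control.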
For orientation: Cellular ATP, detected with luciferase, serves as a proxy for viable cell number.

In series [4] the test system is SUDHL10 cells. Put plainly: Induction of cytotoxicity in SUDHL10 cells (Assay 6). Conditions: 5 h, CellTiter-Glo, read-out: Cytotox SUDHL10 IC50 (median). The format is cell-based. In a few lines: as §2

BCL-2, sequence (P10415 1-211): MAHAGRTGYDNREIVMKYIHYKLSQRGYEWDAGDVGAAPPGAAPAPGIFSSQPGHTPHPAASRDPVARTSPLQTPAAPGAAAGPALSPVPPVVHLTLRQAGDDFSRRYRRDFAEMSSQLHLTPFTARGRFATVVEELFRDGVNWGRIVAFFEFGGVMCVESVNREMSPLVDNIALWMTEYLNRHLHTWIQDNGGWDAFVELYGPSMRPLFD

On to `Cc1c2c(nn1C)C(C)OCCCCn1c(C(=O)O)c(CCCOc3cccc4ccccc34)c3cccc-2c31` (racemic) [Example 1, (rac)-2,3,15-trimethyl-7-[3-(naphthalen-1-yloxy)propyl]-2,10,11,12,13,15-hexahydropyrazolo[4′,3′:9,10][1,6]oxazacycloundecino[8,7,6-hi]indole-8-carboxylic Acid (Mixture of Stereoisomers)], for which the EC50 with SUDHL5 cells [1] amounted to 2300 nM; with SUDHL10 cells [2] (Homo sapiens, SU-DHL10, 3 h), 5900 nM. The IC50 is more than 20000 nM on BCL-2; 2800 nM with SUDHL5 cells [3]; 6600 nM with SUDHL10 cells [4] (Homo sapiens, SU-DHL10, 5 h).

With `Cc1c2c(nn1C)C(CCN1CCOCC1)OCCCCn1c(C(=O)O)c(CCCOc3cccc4ccccc34)c3ccc(F)c-2c31` (racemic) [Example 7, (rac)-4-fluoro-2,3-dimethyl-15-[2-(morpholin-4-yl)ethyl]-7-[3-(naphthalen-1-yloxy)propyl]-2,10,11,12,13,15-hexahydropyrazolo[4′,3′:9,10][1,6]oxazacycloundecino[8,7,6-hi]indole-8-carboxylic Acid], the EC50 in the series with SUDHL5 cells [1] amounted to 200 nM; in the series on SUDHL10 cells [2] (Homo sapiens, SU-DHL10, 3 h), 360 nM. Moreover, the IC50 at BCL-2 is more than 20000 nM; in the series on SUDHL5 cells [3], 240 nM; in the series with SUDHL10 cells [4] (Homo sapiens, SU-DHL10, 5 h) it was 380 nM.

Regarding `CCc1c2c(nn1C)C(CCN1CCOCC1)OCCCCn1c(C(=O)O)c(CCCOc3cccc4ccccc34)c3ccc(F)c-2c31` (racemic) [Example 10, (rac)-3-ethyl-4-fluoro-2-methyl-15-[2-(morpholin-4-yl)ethyl]-7-[3-(naphthalen-1-yloxy)propyl]-2,10,11,12,13,15-hexahydropyrazolo[4′,3′:9,10][1,6]oxazacycloundecino[8,7,6-hi]indole-8-carboxylic Acid], the EC50 amounted to 110 nM with SUDHL5 cells [1] and 220 nM in the series with SUDHL10 cells [2] (Homo sapiens, SU-DHL10, 3 h). The half-maximal inhibitory concentration (IC50) was more than 20000 nM on BCL-2; 140 nM in the series on SUDHL5 cells [3]; 300 nM in the series on SUDHL10 cells [4] (Homo sapiens, SU-DHL10, 5 h).

For `Cc1c2c(nn1C)C(CCN1CCOCC1)OCCCCn1c(C(=O)O)c(CCCOc3cccc4ccccc34)c3ccc(Cl)c-2c31` (racemic) [Example 13, (rac)-4-chloro-2,3-dimethyl-15-[2-(morpholin-4-yl)ethyl]-7-{3-[(naphthalen-1-yl)oxy]propyl}-2,10,11,12,13,15-hexahydropyrazolo[4′,3′:9,10][1,6]oxazacycloundecino[8,7,6-hi]indole-8-carboxylic Acid], the EC50 in the series with SUDHL5 cells [1] was found to be 77 nM; in the series with SUDHL10 cells [2] (Homo sapiens, SU-DHL10, 3 h), 140 nM. The IC50 at BCL-2 is more than 20000 nM; in the series with SUDHL5 cells [3], 89 nM; with SUDHL10 cells [4] (Homo sapiens, SU-DHL10, 5 h), 210 nM.

On to `Cc1c2c(nn1C)C(CCN1CCOCC1)OCCCCn1c(C(=O)O)c(CCCOc3cccc4cc(F)ccc34)c3ccc(Cl)c-2c31` (racemic) [Example 16, (rac)-4-chloro-7-{3-[(6-fluoronaphthalen-1-yl)oxy]propyl}-2,3-dimethyl-15-[2-(morpholin-4-yl)ethyl]-2,10,11,12,13,15-hexahydropyrazolo[4′,3′:9,10][1,6]oxazacycloundecino[8,7,6-hi]indole-8-carboxylic Acid], for which the EC50 in the series with SUDHL5 cells [1] stood at 6.8 nM; with SUDHL10 cells [2] (Homo sapiens, SU-DHL10, 3 h), 19 nM. In addition, the half-maximal inhibitory concentration (IC50) on BCL-2 was more than 20000 nM; with SUDHL5 cells [3] it was 19 nM; with SUDHL10 cells [4] (Homo sapiens, SU-DHL10, 5 h), 22 nM.

`Cc1c2c(nn1C)C(CCN1CCOCC1)OCCCCn1c(C(=O)O)c(CCCOc3cccc4cc(F)ccc34)c3ccc(F)c-2c31` (racemic) [Example 19, (rac)-4-fluoro-7-{3-[(6-fluoronaphthalen-1-yl)oxy]propyl}-2,3-dimethyl-15-[2-(morpholin-4-yl)ethyl]-2,10,11,12,13,15-hexahydropyrazolo[4′,3′:9,10][1,6]oxazacycloundecino[8,7,6-hi]indole-8-carboxylic Acid]: the concentration giving a half-maximal response (EC50) came out at 73 nM with SUDHL5 cells [1] and 79 nM in the series on SUDHL10 cells [2] (Homo sapiens, SU-DHL10, 3 h). Besides, the IC50 at BCL-2 is more than 20000 nM; in the series on SUDHL5 cells [3], 82 nM; in the series with SUDHL10 cells [4] (Homo sapiens, SU-DHL10, 5 h) it was 110 nM.

Turning to `CCc1c2c(nn1C)C(CCN1CCOCC1)OCCCCn1c(C(=O)O)c(CCCOc3cccc4cc(F)ccc34)c3ccc(Cl)c-2c31` (racemic) [Example 22, (rac)-4-chloro-3-ethyl-7-{3-[(6-fluoronaphthalen-1-yl)oxy]propyl}-2-methyl-15-[2-(morpholin-4-yl)ethyl]-2,10,11,12,13,15-hexahydropyrazolo[4′,3′:9,10][1,6]oxazacycloundecino[8,7,6-hi]indole-8-carboxylic Acid], the concentration for a half-maximal effect (EC50) came to 10 nM in the series with SUDHL5 cells [1] and 20 nM with SUDHL10 cells [2] (Homo sapiens, SU-DHL10, 3 h). Moreover, the half-maximal inhibitory concentration (IC50) on BCL-2 was more than 20000 nM; with SUDHL5 cells [3], 11 nM; in the series with SUDHL10 cells [4] (Homo sapiens, SU-DHL10, 5 h), 28 nM.

Turning to `CCC1OCCCCn2c(C(=O)O)c(CCCOc3cccc4ccccc34)c3ccc(Cl)c(c32)-c2c1nn(C)c2C` (racemic) [Example 25, (rac)-4-chloro-15-ethyl-2,3-dimethyl-7-{3-[(naphthalen-1-yl)oxy]propyl}-2,10,11,12,13,15-hexahydropyrazolo[4′,3′:9,10][1,6]oxazacycloundecino[8,7,6-hi]indole-8-carboxylic Acid], the EC50 was found to be 2000 nM in the series on SUDHL5 cells [1] and 10000 nM with SUDHL10 cells [2] (Homo sapiens, SU-DHL10, 3 h). The IC50 on BCL-2 was more than 20000 nM; with SUDHL5 cells [3], 2800 nM; in the series with SUDHL10 cells [4] (Homo sapiens, SU-DHL10, 5 h) it was 8800 nM.

For `CCc1c2c(nn1C)C(CCN1CCN(C)CC1)OCCCCn1c(C(=O)O)c(CCCOc3cccc4cc(F)ccc34)c3ccc(Cl)c-2c31` (racemic) [Example 68, 4-chloro-3-ethyl-7-{3-[(6-fluoronaphthalen-1-yl)oxy]propyl}-2-methyl-(15-rac)-[2-(4-methylpiperazin-1-yl)ethyl]-2,10,11,12,13,15-hexahydropyrazolo[4′,3′:9,10][1,6]oxazacycloundecino[8,7,6-hi]indole-8-carboxylic Acid—N-ethylethanamine Salt (Mixture 1 of Stereoisomers)], the EC50 in the series on SUDHL10 cells [2] is 82 nM. For the same compound, the values for the IC50 at BCL-2 and with SUDHL10 cells [4] were more than 20000 nM and 150 nM, respectively.

For `CCc1c2c(nn1C)C(CCN1CCN(C)CC1)OCCCCn1c(C(=O)O)c(CCCOc3cccc4cc(F)ccc34)c3ccc(Cl)c-2c31` (racemic) [Example 71, (rac)-4-chloro-3-ethyl-7-{3-[(6-fluoronaphthalen-1-yl)oxy]propyl}-2-methyl-(15-rac)-[2-(4-methylpiperazin-1-yl)ethyl]-2,10,11,12,13,15-hexahydropyrazolo[4′,3′:9,10][1,6]oxazacycloundecino[8,7,6-hi]indole-8-carboxylic Acid—N-ethylethanamine Salt (Mixture 2 Od Stereoisomers)], the 50% effective concentration (EC50) in the series on SUDHL10 cells [2] turned out to be 41 nM. The IC50 on BCL-2 was more than 20000 nM; in the series with SUDHL10 cells [4], 36 nM.
